ChEMBL document CHEMBL4257449, “New N-(2-phenyl-4-oxo-1,3-thiazolidin-3-yl)-1,2-benzothiazole-3-carboxamides and acetamides as antimicrobial agents” (2017)
In brackets after ≈: the same amount, converted by molar mass.

tested on: Penicillium ochrochloron; assay: Antifungal activity against Penicillium ochrochloron ATCC 9112 after 72 hrs by serial dilution method; format: functional; conditions: ATCC 9112, 72 h

MIC [µM] | SMILES
112 (≈ 39.8 µg/mL) | O=C(NN1C(=O)CSC1c1ccccc1)c1nsc2ccccc12 (centres undefined)
54 (≈ 20.2 µg/mL) | O=C(NN1C(=O)CSC1c1ccccc1F)c1nsc2ccccc12 (centres undefined)

tested on: Bacillus cereus; assay: Antibacterial activity against Bacillus cereus after 24 hrs by microdilution method; format: functional; conditions: not given

MIC [µM] | SMILES
225 (≈ 80 µg/mL) | O=C(NN1C(=O)CSC1c1ccccc1)c1nsc2ccccc12 (centres undefined)
214 (≈ 79.9 µg/mL) | O=C(NN1C(=O)CSC1c1ccccc1F)c1nsc2ccccc12 (centres undefined)

tested on: Bacillus cereus; assay: Bactericidal activity against Bacillus cereus incubated for 24 hrs followed by serial sub-cultivation and measured after 24 hrs by microdilution method; format: functional; conditions: not given

SMILES | MBC99.5 [×10⁻² umol/ml]
O=C(NN1C(=O)CSC1c1ccccc1)c1nsc2ccccc12 (centres undefined) | 42.2
O=C(NN1C(=O)CSC1c1ccccc1F)c1nsc2ccccc12 (centres undefined) | 40.2

tested on: Micrococcus flavus; assay: Antibacterial activity against Micrococcus flavus ATCC 10240 after 24 hrs by microdilution method; format: functional; conditions: ATCC 10240, 24 h

MIC [µM] | SMILES
225 (≈ 80 µg/mL) | O=C(NN1C(=O)CSC1c1ccccc1)c1nsc2ccccc12 (centres undefined)
295 (≈ 110 µg/mL) | O=C(NN1C(=O)CSC1c1ccccc1F)c1nsc2ccccc12 (centres undefined)

tested on: Micrococcus flavus; assay: Bactericidal activity against Micrococcus flavus ATCC 10240 incubated for 24 hrs followed by serial sub-cultivation and measured after 24 hrs by microdilution method; format: functional; conditions: not given

SMILES | MBC99.5 [×10⁻² umol/ml]
O=C(NN1C(=O)CSC1c1ccccc1)c1nsc2ccccc12 (centres undefined) | 42.2
O=C(NN1C(=O)CSC1c1ccccc1F)c1nsc2ccccc12 (centres undefined) | 40.2

tested on: Staphylococcus aureus; assay: Antibacterial activity against Staphylococcus aureus ATCC 6538 after 24 hrs by microdilution method; format: functional; conditions: ATCC 6538, 24 h

MIC [µM] | SMILES
225 (≈ 80 µg/mL) | O=C(NN1C(=O)CSC1c1ccccc1)c1nsc2ccccc12 (centres undefined)
214 (≈ 79.9 µg/mL) | O=C(NN1C(=O)CSC1c1ccccc1F)c1nsc2ccccc12 (centres undefined)

tested on: Staphylococcus aureus; assay: Bactericidal activity against Staphylococcus aureus ATCC 6538 incubated for 24 hrs followed by serial sub-cultivation and measured after 24 hrs by microdilution method; format: functional; conditions: not given

SMILES | MBC99.5 [×10⁻² umol/ml]
O=C(NN1C(=O)CSC1c1ccccc1)c1nsc2ccccc12 (centres undefined) | 42.2
O=C(NN1C(=O)CSC1c1ccccc1F)c1nsc2ccccc12 (centres undefined) | 40.2

tested on: Listeria monocytogenes; assay: Antibacterial activity against Listeria monocytogenes NCTC 7973 after 24 hrs by microdilution method; format: functional; conditions: NCTC 7973, 24 h

MIC [µM] | SMILES
225 (≈ 80 µg/mL) | O=C(NN1C(=O)CSC1c1ccccc1)c1nsc2ccccc12 (centres undefined)
214 (≈ 79.9 µg/mL) | O=C(NN1C(=O)CSC1c1ccccc1F)c1nsc2ccccc12 (centres undefined)

tested on: Listeria monocytogenes; assay: Bactericidal activity against Listeria monocytogenes NCTC 7973 incubated for 24 hrs followed by serial sub-cultivation and measured after 24 hrs by microdilution method; format: functional; conditions: not given

SMILES | MBC99.5 [×10⁻² umol/ml]
O=C(NN1C(=O)CSC1c1ccccc1)c1nsc2ccccc12 (centres undefined) | 42.2
O=C(NN1C(=O)CSC1c1ccccc1F)c1nsc2ccccc12 (centres undefined) | 40.2

tested on: Escherichia coli; assay: Antibacterial activity against Escherichia coli ATCC 35210 after 24 hrs by microdilution method; format: functional; conditions: ATCC 35210, 24 h

MIC [µM] | SMILES
112 (≈ 39.8 µg/mL) | O=C(NN1C(=O)CSC1c1ccccc1)c1nsc2ccccc12 (centres undefined)
214 (≈ 79.9 µg/mL) | O=C(NN1C(=O)CSC1c1ccccc1F)c1nsc2ccccc12 (centres undefined)

tested on: Escherichia coli; assay: Bactericidal activity against Escherichia coli ATCC 35210 incubated for 24 hrs followed by serial sub-cultivation and measured after 24 hrs by microdilution method; format: functional; conditions: not given

SMILES | MBC99.5 [×10⁻² umol/ml]
O=C(NN1C(=O)CSC1c1ccccc1)c1nsc2ccccc12 (centres undefined) | 22.5
O=C(NN1C(=O)CSC1c1ccccc1F)c1nsc2ccccc12 (centres undefined) | 40.2

tested on: Enterobacter cloacae; assay: Antibacterial activity against Enterobacter cloacae after 24 hrs by microdilution method; format: functional; conditions: not given

MIC [µM] | SMILES
112 (≈ 39.8 µg/mL) | O=C(NN1C(=O)CSC1c1ccccc1)c1nsc2ccccc12 (centres undefined)
214 (≈ 79.9 µg/mL) | O=C(NN1C(=O)CSC1c1ccccc1F)c1nsc2ccccc12 (centres undefined)

tested on: Enterobacter cloacae; assay: Bactericidal activity against Enterobacter cloacae incubated for 24 hrs followed by serial sub-cultivation and measured after 24 hrs by microdilution method; format: functional; conditions: not given

SMILES | MBC99.5 [×10⁻² umol/ml]
O=C(NN1C(=O)CSC1c1ccccc1)c1nsc2ccccc12 (centres undefined) | 22.5
O=C(NN1C(=O)CSC1c1ccccc1F)c1nsc2ccccc12 (centres undefined) | 40.2

tested on: Pseudomonas aeruginosa; assay: Antibacterial activity against Pseudomonas aeruginosa ATCC 27853 after 24 hrs by microdilution method; format: functional; conditions: ATCC 27853, 24 h

MIC [µM] | SMILES
225 (≈ 80 µg/mL) | O=C(NN1C(=O)CSC1c1ccccc1)c1nsc2ccccc12 (centres undefined)
214 (≈ 79.9 µg/mL) | O=C(NN1C(=O)CSC1c1ccccc1F)c1nsc2ccccc12 (centres undefined)

tested on: Pseudomonas aeruginosa; assay: Bactericidal activity against Pseudomonas aeruginosa ATCC 27853 incubated for 24 hrs followed by serial sub-cultivation and measured after 24 hrs by microdilution method; format: functional; conditions: not given

SMILES | MBC99.5 [×10⁻² umol/ml]
O=C(NN1C(=O)CSC1c1ccccc1)c1nsc2ccccc12 (centres undefined) | 42.2
O=C(NN1C(=O)CSC1c1ccccc1F)c1nsc2ccccc12 (centres undefined) | 40.2

tested on: Salmonella typhimurium; assay: Antibacterial activity against Salmonella typhimurium ATCC 13311 after 24 hrs by microdilution method; format: functional, Salmonella enterica subsp. enterica serovar Typhimurium; conditions: Salmonella enterica, ATCC 13311, 24 h

MIC [µM] | SMILES
225 (≈ 80 µg/mL) | O=C(NN1C(=O)CSC1c1ccccc1)c1nsc2ccccc12 (centres undefined)
214 (≈ 79.9 µg/mL) | O=C(NN1C(=O)CSC1c1ccccc1F)c1nsc2ccccc12 (centres undefined)

tested on: Salmonella typhimurium; assay: Bactericidal activity against Salmonella typhimurium ATCC 13311 incubated for 24 hrs followed by serial sub-cultivation and measured after 24 hrs by microdilution method; format: functional, Salmonella enterica subsp. enterica serovar Typhimurium; conditions: not given

SMILES | MBC99.5 [×10⁻² umol/ml]
O=C(NN1C(=O)CSC1c1ccccc1)c1nsc2ccccc12 (centres undefined) | 42.2
O=C(NN1C(=O)CSC1c1ccccc1F)c1nsc2ccccc12 (centres undefined) | 40.2

tested on: Aspergillus versicolor; assay: Antifungal activity against Aspergillus versicolor ATCC 11730 after 72 hrs by serial dilution method; format: functional; conditions: ATCC 11730, 72 h

MIC [µM] | SMILES
225 (≈ 80 µg/mL) | O=C(NN1C(=O)CSC1c1ccccc1)c1nsc2ccccc12 (centres undefined)
214 (≈ 79.9 µg/mL) | O=C(NN1C(=O)CSC1c1ccccc1F)c1nsc2ccccc12 (centres undefined)

tested on: Aspergillus fumigatus; assay: Antifungal activity against Aspergillus fumigatus after 72 hrs by serial dilution method; format: functional; conditions: not given

MIC [µM] | SMILES
112 (≈ 39.8 µg/mL) | O=C(NN1C(=O)CSC1c1ccccc1)c1nsc2ccccc12 (centres undefined)
107 (≈ 40 µg/mL) | O=C(NN1C(=O)CSC1c1ccccc1F)c1nsc2ccccc12 (centres undefined)

tested on: Aspergillus fumigatus; assay: Fungicidal activity against Aspergillus fumigatus incubated for 72 hrs followed by serial sub-cultivation for 72 hrs and measured after 72 hrs by serial dilution method; format: functional; conditions: not given

SMILES | MFC99.5 [×10⁻² umol/ml]
O=C(NN1C(=O)CSC1c1ccccc1)c1nsc2ccccc12 (centres undefined) | 22.5
O=C(NN1C(=O)CSC1c1ccccc1F)c1nsc2ccccc12 (centres undefined) | 21.4

tested on: Aspergillus versicolor; assay: Fungicidal activity against Aspergillus versicolor ATCC 11730 incubated for 72 hrs followed by serial sub-cultivation for 72 hrs and measured after 72 hrs by serial dilution method; format: functional; conditions: not given

SMILES | MFC99.5 [×10⁻² umol/ml]
O=C(NN1C(=O)CSC1c1ccccc1)c1nsc2ccccc12 (centres undefined) | 42.2
O=C(NN1C(=O)CSC1c1ccccc1F)c1nsc2ccccc12 (centres undefined) | 40.2

tested on: Aspergillus ochraceus; assay: Antifungal activity against Aspergillus ochraceus ATCC 12066 after 72 hrs by serial dilution method; format: functional; conditions: ATCC 12066, 72 h

MIC [µM] | SMILES
28 (≈ 9.95 µg/mL) | O=C(NN1C(=O)CSC1c1ccccc1)c1nsc2ccccc12 (centres undefined)
80 (≈ 29.9 µg/mL) | O=C(NN1C(=O)CSC1c1ccccc1F)c1nsc2ccccc12 (centres undefined)

tested on: Aspergillus ochraceus; assay: Fungicidal activity against Aspergillus ochraceus ATCC 12066 incubated for 72 hrs followed by serial sub-cultivation for 72 hrs and measured after 72 hrs by serial dilution method; format: functional; conditions: not given

SMILES | MFC99.5 [×10⁻² umol/ml]
O=C(NN1C(=O)CSC1c1ccccc1)c1nsc2ccccc12 (centres undefined) | 5.6
O=C(NN1C(=O)CSC1c1ccccc1F)c1nsc2ccccc12 (centres undefined) | 21.4

tested on: Aspergillus niger; assay: Antifungal activity against Aspergillus niger ATCC 6275 after 72 hrs by serial dilution method; format: functional; conditions: ATCC 6275, 72 h

MIC [µM] | SMILES
112 (≈ 39.8 µg/mL) | O=C(NN1C(=O)CSC1c1ccccc1)c1nsc2ccccc12 (centres undefined)
107 (≈ 40 µg/mL) | O=C(NN1C(=O)CSC1c1ccccc1F)c1nsc2ccccc12 (centres undefined)

tested on: Aspergillus niger; assay: Fungicidal activity against Aspergillus niger ATCC 6275 incubated for 72 hrs followed by serial sub-cultivation for 72 hrs and measured after 72 hrs by serial dilution method; format: functional; conditions: not given

SMILES | MFC99.5 [×10⁻² umol/ml]
O=C(NN1C(=O)CSC1c1ccccc1)c1nsc2ccccc12 (centres undefined) | 22.5
O=C(NN1C(=O)CSC1c1ccccc1F)c1nsc2ccccc12 (centres undefined) | 21.4

tested on: Trichoderma viride; assay: Antifungal activity against Trichoderma viride IAM 5061 after 72 hrs by serial dilution method; format: functional; conditions: IAM 5061, 72 h

MIC [µM] | SMILES
56 (≈ 19.9 µg/mL) | O=C(NN1C(=O)CSC1c1ccccc1)c1nsc2ccccc12 (centres undefined)
27 (≈ 10.1 µg/mL) | O=C(NN1C(=O)CSC1c1ccccc1F)c1nsc2ccccc12 (centres undefined)

tested on: Trichoderma viride; assay: Fungicidal activity against Trichoderma viride IAM 5061 incubated for 72 hrs followed by serial sub-cultivation for 72 hrs and measured after 72 hrs by serial dilution method; format: functional; conditions: not given

SMILES | MFC99.5 [×10⁻² umol/ml]
O=C(NN1C(=O)CSC1c1ccccc1)c1nsc2ccccc12 (centres undefined) | 11.2
O=C(NN1C(=O)CSC1c1ccccc1F)c1nsc2ccccc12 (centres undefined) | 5.4

tested on: Talaromyces funiculosus; assay: Antifungal activity against Penicillium funiculosum ATCC 36839 after 72 hrs by serial dilution method; format: functional; conditions: ATCC 36839, 72 h

MIC [µM] | SMILES
225 (≈ 80 µg/mL) | O=C(NN1C(=O)CSC1c1ccccc1)c1nsc2ccccc12 (centres undefined)
107 (≈ 40 µg/mL) | O=C(NN1C(=O)CSC1c1ccccc1F)c1nsc2ccccc12 (centres undefined)

tested on: Talaromyces funiculosus; assay: Fungicidal activity against Penicillium funiculosum ATCC 36839 incubated for 72 hrs followed by serial sub-cultivation for 72 hrs and measured after 72 hrs by serial dilution method; format: functional; conditions: not given

SMILES | MFC99.5 [×10⁻² umol/ml]
O=C(NN1C(=O)CSC1c1ccccc1)c1nsc2ccccc12 (centres undefined) | 42.2
O=C(NN1C(=O)CSC1c1ccccc1F)c1nsc2ccccc12 (centres undefined) | 21.4

tested on: Penicillium ochrochloron; assay: Fungicidal activity against Penicillium ochrochloron ATCC 9112 incubated for 72 hrs followed by serial sub-cultivation for 72 hrs and measured after 72 hrs by serial dilution method; format: functional; conditions: not given

SMILES | MFC99.5 [×10⁻² umol/ml]
O=C(NN1C(=O)CSC1c1ccccc1)c1nsc2ccccc12 (centres undefined) | 22.5
O=C(NN1C(=O)CSC1c1ccccc1F)c1nsc2ccccc12 (centres undefined) | 10.7

tested on: Candida albicans; assay: Antifungal activity against Candida albicans after 72 hrs by serial dilution method; format: functional; conditions: not given

MIC [µM] | SMILES
253 (≈ 89.9 µg/mL) | O=C(NN1C(=O)CSC1c1ccccc1)c1nsc2ccccc12 (centres undefined)
107 (≈ 40 µg/mL) | O=C(NN1C(=O)CSC1c1ccccc1F)c1nsc2ccccc12 (centres undefined)

tested on: Candida albicans; assay: Fungicidal activity against Candida albicans incubated for 72 hrs followed by serial sub-cultivation for 72 hrs and measured after 72 hrs by serial dilution method; format: functional; conditions: not given

SMILES | MFC99.5 [×10⁻² umol/ml]
O=C(NN1C(=O)CSC1c1ccccc1)c1nsc2ccccc12 (centres undefined) | 42.2
O=C(NN1C(=O)CSC1c1ccccc1F)c1nsc2ccccc12 (centres undefined) | 21.4
